Data from patent publication US20100076047A1, “Amorphous 1-(9H-carbazol-4-yloxy)-3-[[2-(2-methoxyphenoxy)ethyl]amino]-2-propanol phosphate salt” (priority 2007, published 2010).
Structures can show the parent of a compound that is named as a salt.

Legend:
[1] = storage stability of the solid amorphous form (XRD); type: physicochemical
Excerpt: Solid amorphous Carvedilol dihydrogen phosphate is provided herein.

[2] = moisture uptake on exposure to air; type: physicochemical

stability on storage ([1]; stored under controlled humidity conditions, no conversion to a crystalline form): stable
stability profile compared to the existing crystalline forms ([1]; versus existing crystalline forms): superior stability profile
XRD pattern after moisture uptake ([2]; after picking up moisture up to 7%): remains identical
moisture picked up when exposed to air ([2]; material of low moisture content exposed to air, forming higher hydrates): up to 7%
SMILES: COc1ccccc1OCCNCC(O)COc1cccc2[nH]c3ccccc3c12 (stereo not shown) [1-(9H-carbazol-4-yloxy)-3-[[2-(2-methoxyphenoxy)ethyl]amino]-2-propanol phosphate salt]
